Data as given in the supplement of paper PMC10307832.

Tests used:
Test in all cases: relative viability (nuclei count vs DMSO), 5 days (fraction); higher = more cells survive
GSK126 + Trametinib = compound: CC[C@H](C)N1C=C(C2=C(C=C(C=C21)C3=CN=C(C=C3)N4CCNCC4)C(=O)NCC5=C(C=C(NC5=O)C)C)C [GSK126] + CC(=O)Nc1cccc(-n2c(=O)n(C3CC3)c(=O)c3c(Nc4ccc(I)cc4F)n(C)c(=O)c(C)c32)c1 [Trametinib] (partner 0.02 µM)
Outline: (§1)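 Lung cancer cell lines, seeded in 1536-well plates, were treated the following day by pin tool with a single drug or with five library-drug doses (not always all listed) in √10 steps on top of a fixed anchor-drug dose. Cells were fixed and nuclei stained in one step after 5 days, and nuclei were counted. Relative viability is the nuclei count for treated wells divided by that for vehicle wells, reported as medians of duplicate plates.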

GSK126 + Luminespib = compound: CC[C@H](C)N1C=C(C2=C(C=C(C=C21)C3=CN=C(C=C3)N4CCNCC4)C(=O)NCC5=C(C=C(NC5=O)C)C)C [GSK126] + CCNC(=O)c1noc(-c2cc(C(C)C)c(O)cc2O)c1-c1ccc(CN2CCOCC2)cc1 [Luminespib] (partner 0.01 µM)
Outline: as §1

Carboplatin + Phenformin = compound: C1CC(C1)(C(=O)O)C(=O)O.[NH2-].[NH2-].[Pt+2] [Carboplatin] + N=C(N)NC(=N)NCCc1ccccc1 [Phenformin] (partner 250 µM)
Outline: as §1

Carboplatin + Navitoclax = compound: C1CC(C1)(C(=O)O)C(=O)O.[NH2-].[NH2-].[Pt+2] [Carboplatin] + CC1(C)CCC(c2ccc(Cl)cc2)=C(CN2CCN(c3ccc(C(=O)NS(=O)(=O)c4ccc(N[C@H](CCN5CCOCC5)CSc5ccccc5)c(S(=O)(=O)C(F)(F)F)c4)cc3)CC2)C1 [Navitoclax] (partner 0.5 µM)
Outline: as §1

| Cell Line | relative viability (GSK126 + Trametinib; first compound 0.08 µM) | relative viability (GSK126 + Trametinib; first compound 0.253 µM) | relative viability (GSK126 + Trametinib; first compound 0.8 µM) | relative viability (GSK126 + Trametinib; first compound 2.53 µM) | relative viability (GSK126 + Trametinib; first compound 8 µM) | relative viability (GSK126 + Luminespib; first compound 0.08 µM) | relative viability (GSK126 + Luminespib; first compound 0.253 µM) | relative viability (GSK126 + Luminespib; first compound 0.8 µM) | relative viability (GSK126 + Luminespib; first compound 2.53 µM) | relative viability (GSK126 + Luminespib; first compound 8 µM) | relative viability (Carboplatin + Phenformin; first compound 0.08 µM) | relative viability (Carboplatin + Phenformin; first compound 0.253 µM) | relative viability (Carboplatin + Phenformin; first compound 0.8 µM) | relative viability (Carboplatin + Phenformin; first compound 2.53 µM) | relative viability (Carboplatin + Phenformin; first compound 8 µM) | relative viability (Carboplatin + Navitoclax; first compound 0.08 µM) | relative viability (Carboplatin + Navitoclax; first compound 0.253 µM) | relative viability (Carboplatin + Navitoclax; first compound 0.8 µM) | relative viability (Carboplatin + Navitoclax; first compound 2.53 µM) | relative viability (Carboplatin + Navitoclax; first compound 8 µM) |
| --- | --- | --- | --- | --- | --- | --- | --- | --- | --- | --- | --- | --- | --- | --- | --- | --- | --- | --- | --- | --- |
| NCI-H1944 | 0.415 | 0.373 | 0.435 | 0.443 | 0.413 | 0.873 | 0.72 | 0.621 | 0.678 | 0.923 | 0.217 | 0.193 | 0.186 | 0.181 | 0.181 | 1.1 | 1.1 | 0.991 | 1.02 | 0.656 |
| HARA | 0.755 | 0.771 | 0.587 | 0.613 | 0.621 | 0.787 | 0.679 | 0.688 | 0.895 | 0.813 | 0.466 | 0.518 | 0.372 | 0.426 | 0.425 | 1.1 | 1.16 | 1.08 | 1.07 | 1.09 |
| NCI-H2347 | 0.289 | 0.276 | 0.261 | 0.303 | 0.298 | 0.757 | 0.701 | 0.308 | 0.392 | 0.267 | 0.36 | 0.382 | 0.583 | 0.534 | 0.324 | 0.897 | 0.929 | 0.771 | 0.721 | 0.673 |
| COR-L 105 | 0.453 | 0.424 | 0.467 | 0.439 | 0.466 | 1.01 | 0.74 | 0.78 | 0.734 | 0.839 | 0.576 | 0.418 | 0.481 | 0.411 | 0.373 | 0.66 | 0.809 | 0.595 | 0.822 | 0.531 |
| A-427 | 0.845 | 0.762 | 0.712 | 0.757 | 0.795 | 1.29 | 0.87 | 0.82 | 0.884 | 0.769 | 0.428 | 0.385 | 0.32 | 0.285 | 0.383 | 0.973 | 0.941 | 0.953 | 0.908 | 0.964 |
| HCC-15 | 0.425 | 0.409 | 0.386 | 0.382 | 0.359 | 0.494 | 0.268 | 0.41 | 0.286 | 0.245 | 0.562 | 0.47 | 0.441 | 0.407 | 0.37 | 0.73 | 0.702 | 0.718 | 0.699 | 0.604 |
| NCI-H1623 | – | – | – | – | – | 0.617 | 0.425 | 0.502 | 0.512 | 0.42 | 0.586 | 0.609 | 0.586 | 0.534 | 0.513 | – | – | – | – | – |
| NCI-H2342 | 0.786 | 0.739 | 0.815 | 0.869 | 0.984 | 0.731 | 0.875 | 0.799 | 0.857 | 0.878 | 0.759 | 0.709 | 0.616 | 0.638 | 0.615 | – | – | – | – | – |
| NCI-H2023 | 0.718 | 0.6 | 0.646 | 0.533 | 0.603 | 0.728 | 0.759 | 0.698 | 0.656 | 0.66 | 0.447 | 0.413 | 0.381 | 0.27 | 0.145 | 1.02 | 0.96 | 0.883 | 0.76 | 0.312 |
